Measurements: publication PMC12686243, “Synthesis and preclinical evaluation of FAP-targeting radiotracers for PET and optical imaging” (EJNMMI Radiopharmacy and Chemistry, 2025)

Assays:
[1] = target: T1, hFAPα, recombinant protein (Homo sapiens, UniProt Q12884); assay: fluorometric enzyme inhibition assay for FAP; format: biochemical; conditions: Morrison equation for tight binding inhibitors; substrate Ala-Pro-AMC; mean ± SD
T1 construct: purchased
T1 sequence (Q12884 1-760): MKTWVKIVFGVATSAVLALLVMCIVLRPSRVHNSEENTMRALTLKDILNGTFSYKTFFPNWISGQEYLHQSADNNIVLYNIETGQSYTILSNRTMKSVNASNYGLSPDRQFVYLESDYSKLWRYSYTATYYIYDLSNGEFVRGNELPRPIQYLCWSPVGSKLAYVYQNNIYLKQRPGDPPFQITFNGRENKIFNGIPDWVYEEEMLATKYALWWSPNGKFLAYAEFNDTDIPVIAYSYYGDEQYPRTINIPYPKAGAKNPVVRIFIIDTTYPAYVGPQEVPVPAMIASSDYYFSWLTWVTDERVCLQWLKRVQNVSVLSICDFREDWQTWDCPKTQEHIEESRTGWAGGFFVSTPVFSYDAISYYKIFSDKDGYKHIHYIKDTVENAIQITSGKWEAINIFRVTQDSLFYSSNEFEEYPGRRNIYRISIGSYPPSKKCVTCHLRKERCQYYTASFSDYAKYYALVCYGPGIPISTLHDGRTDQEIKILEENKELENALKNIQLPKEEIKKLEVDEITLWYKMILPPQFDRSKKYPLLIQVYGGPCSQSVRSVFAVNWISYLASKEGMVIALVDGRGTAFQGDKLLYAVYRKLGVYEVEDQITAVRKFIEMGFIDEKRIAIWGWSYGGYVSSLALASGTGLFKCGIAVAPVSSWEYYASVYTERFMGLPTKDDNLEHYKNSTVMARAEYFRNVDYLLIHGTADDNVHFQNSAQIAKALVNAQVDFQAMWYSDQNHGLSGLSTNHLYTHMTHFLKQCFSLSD
Experimental: Affinity towards FAP was tested using a commercially available fluorometric assay. At the day of the experiment, all tested compounds were diluted in assay buffer (DPP assay buffer, BPS Bioscience, San Diego, CA, USA,) in a 1:1 dilution series, resulting in eleven concentrations, ranging from 2000 nM to 1.950 nM, equal to 200 nM to 0.195 nM per well. The substrate Ala-Pro-AMC (BPS Bioscience, concentration per well: 5 μM, Km = 244 μM (Edosada et al. [2006])) was pipetted along with the inhibitor into a 96-well plate. Subsequently, the enzyme (hFAPα, recombinant protein) was dissolved in assay buffer and added to the wells. The final concentration of DMSO per well was 0.2%. The 96-well plate was immediately loaded into a multimode plate reader (Biotek Cytation 5, Agilent, Santa Clara, CA, USA). The fluorescence intensity for each well was measured over a time course of 30 min with measurement intervals of 15 s, an excitation wavelength of 360 ± 20 nm and an emission wavelength of 450 ± 20 nm. Data (relative fluorescence units, RFU) over the total measurement time was analyzed by linear regression. The slope of the resulting graphs was analyzed over the inhibitor concentration. The enzyme inhibition constant Ki was calculated using the Morrison equation for tight binding inhibitors (Williams and Morrison [1979]). […]

[2] = target: T2, human recombinant dipeptidylpeptidase IV (Homo sapiens, UniProt P27487); assay: fluorometric enzyme inhibition assay for DPPIV; format: biochemical
T2 construct: purchased Cayman Chemical
T2 sequence (P27487 whole entry): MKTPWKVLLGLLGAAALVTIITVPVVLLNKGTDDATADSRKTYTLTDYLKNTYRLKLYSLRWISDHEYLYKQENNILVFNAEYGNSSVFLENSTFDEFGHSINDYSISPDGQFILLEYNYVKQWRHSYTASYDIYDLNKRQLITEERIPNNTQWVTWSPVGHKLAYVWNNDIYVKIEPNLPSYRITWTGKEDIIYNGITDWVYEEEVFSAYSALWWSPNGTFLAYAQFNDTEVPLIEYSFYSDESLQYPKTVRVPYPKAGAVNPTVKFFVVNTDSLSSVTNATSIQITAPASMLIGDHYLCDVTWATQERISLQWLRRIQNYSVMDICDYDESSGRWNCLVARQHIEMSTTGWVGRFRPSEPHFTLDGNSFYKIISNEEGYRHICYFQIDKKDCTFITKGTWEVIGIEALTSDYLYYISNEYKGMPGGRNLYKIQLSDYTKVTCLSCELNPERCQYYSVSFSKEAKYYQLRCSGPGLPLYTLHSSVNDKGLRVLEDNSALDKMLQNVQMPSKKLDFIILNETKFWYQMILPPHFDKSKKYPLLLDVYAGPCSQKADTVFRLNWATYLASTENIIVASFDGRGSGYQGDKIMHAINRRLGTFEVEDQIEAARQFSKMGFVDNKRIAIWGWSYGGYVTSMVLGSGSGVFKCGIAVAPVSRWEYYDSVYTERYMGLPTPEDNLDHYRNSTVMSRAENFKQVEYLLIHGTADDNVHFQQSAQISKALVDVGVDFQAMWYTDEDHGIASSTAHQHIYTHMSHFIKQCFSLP
Experimental: The affinity towards DPPIV was determined using a commercially available inhibitor screening assay kit (Cayman Chemical, USA). The assay was performed according to the manufacturer’s instructions, and the data was analyzed as described above.

[3] = target: T3, hFAP (vital hFAP-HT1080 cells) (Homo sapiens, UniProt Q12884); assay: real-time binding (LigandTracer) to vital hFAP-HT1080 cells; conditions: fluorescent vs radioactive detection
T3 construct: expressed in transfected cells; host or cells: HT1080 (human fibrosarcoma), lentiviral transduction
T3 sequence (Q12884 1-760): T1 sequence (Q12884 1-760)
Experimental: To determine binding kinetics (association rate constant ka, dissociation rate constant kd, and thermodynamic dissociation constant KD), real-time assay systems (LigandTracer Yellow/White for radioactivity and Green with Red/NIR + and NIR + + /IR detectors for fluorescence; Ridgeview Instruments AB, Sweden) were utilized. In a 100 mm petri dish, cells or tissue sections in medium (3–4 mL total volume), are located on one side, while the radioactive or fluorescent signal is detected on the opposite, elevated side. Rotation on an inclined base in set intervals (30 s) allows continuous measurement of signal in the target (cells/tissue) against background area (no cells/tissue). Experiments were performed at room temperature, using CO2-independent medium, usually with 0.5–1% w/v bovine serum albumin, (#1ETA, Carl Roth, Germany). Association was determined through incubation with two distinct concentrations (between 1–5 and 4.5–10 nM, 60 min each, additive) for each compound. For that purpose, the same ligand preparation was typically employed for radioactive and fluorescent detection. This was followed by replacement with fresh medium and observation of dissociation for at least 2 h. Additionally, the dissociation rate constant was further investigated beyond 6 h, either using fluorescent detection or via gallium-67 (t1/2: 78.3 h). This approach provides reliable kinetic measurements in a 1:1 interaction setting, as previously shown (Onell and Andersson [2005]).
Binding data was evaluated using TraceDrawer (1.9.2, Ridgeview Instruments AB, Sweden). Traces were imported, potential spikes (> 100% sudden signal increases over previous datapoints) removed and each trace was normalized to its own baseline (= 0%) and highest value (= 100%, typically at the end of the second association phase). This allows comparing data across experiments and ultimately global fitting, without differences, e.g. of molar activity, affecting it. Typically, at least 3 individual traces per ligand, substrate and modality were recorded. Data was fitted in TraceDrawer using a 1:1 interaction model, with/without accounting for bulk effect. A 1:1 interaction is the simplest model, as it describes the binding of a ligand at a constant concentration to the target, with each one molecule of ligand binding to one molecule of target.

[4] = tested on: hFAP-HT1080 and WT-HT1080 xenografts; assay: in vivo fluorescence imaging of xenograft-bearing mice; design: species or system nude mice
Excerpt: Female athymic NMRI-nude mice (Rj:NMRI-Foxn1nu, Janvier Labs, France or Charles River, Germany) between 8 and 20 weeks of age were used. Subsequently, the prepared cells (1.0–2.0 × 10^6 hFAP/WT-HT1080 per animal) were subcutaneously injected into the right and left thigh, respectively. Xenograft tissue for real-time binding experiments was derived from animals injected with both target-positive and negative cells, however only showing growth of one tumor entity. When approaching endpoints, mice were anesthetized and euthanized. The tumor was quickly removed, frozen in − 45 °C 2-methylbutane and stored in sealed tubes at − 80 °C.
Optical imaging was performed using a multimodal IVIS-CT (Perkin Elmer, USA). Compounds were injected [0.09 mg/kg (n = 1)/0.33 mg/kg (n = 3) for NODAGA-FAP647; 0.17 mg/kg (n = 3) for NODAGA-FAP800, diluted in 150 µL of sterile 0.9% NaCl solution] into the lateral tail vein, either directly or via catheter. Fluorescence imaging started ~ 2 min post injection for 2–3 h, with 1 min, 3–5 min and 10 min intervals, along with a white-light image. Additional scans were performed after 24 h and, if applicable, later. The fluorescence of the respective fluorophore was captured (NODAGA-FAP647: λEx/Em = 640/680 nm, NODAGA-FAP800: λEx/Em = 745/800 nm). Emitted fluorescence intensity was analyzed (Perkin Elmer, Living Image 4.7.4) in raw data images.

[5] = target: T4, hFAP (hFAP-HT1080 xenograft tissue sections) (Homo sapiens, UniProt Q12884); assay: real-time binding to frozen hFAP-HT1080 xenograft tissue sections; conditions: ^67Ga-labeled
T4 construct: expressed in transfected cells; host or cells: HT1080 (human fibrosarcoma), lentiviral transduction
T4 sequence (Q12884 1-760): T1 sequence (Q12884 1-760)
Experimental: HT1080 cells were chosen as cellular and xenograft models, due to their similarity to FAP expressing fibroblasts and its origin (fibrosarcoma). For that purpose, HT1080 wild-type cells (WT-HT1080; European Collection of Authenticated Cell Cultures, ECACC, United Kingdom) were used as control. Cells were cultured in DMEM with GlutaMax (#31966021, Gibco), supplemented with 10% v/v fetal bovine serum (#S0615 Sigma Aldrich, Germany), 1% penicillin/streptomycin (#15140–122, Gibco, USA), 1% Non-essential amino acids under normoxic (5% CO2; 37 °C) conditions. Upon reaching ~ 90% confluency, cells were passaged. Typically, cultures were discarded after ~ 20 passages. […] Prior to in vitro experiments, cells were washed, trypsinized (0.05% Trypsin–EDTA, Gibco, USA), taken up in medium and an aliquot was counted using a CASY1 cell counter (Model TT, Schaerfe System, Reutlingen, Germany). […]
To determine binding kinetics (association rate constant ka, dissociation rate constant kd, and thermodynamic dissociation constant KD), real-time assay systems (LigandTracer Yellow/White for radioactivity and Green with Red/NIR + and NIR + + /IR detectors for fluorescence; Ridgeview Instruments AB, Sweden) were utilized. In a 100 mm petri dish, cells or tissue sections in medium (3–4 mL total volume), are located on one side, while the radioactive or fluorescent signal is detected on the opposite, elevated side. […]

[6] = stability in human serum; format: in vitro ADME; conditions: 37 °C; for degradation in human serum: four-hour time point; for fraction of intact tracer: human serum, after 24 h
Experimental: Stability testing in human serum (Sigma Aldrich, Darmstadt, Germany) was carried out by incubation of the ^67Ga-labeled radiotracer at 37 °C. After defined time points an aliquot was withdrawn and the serum proteins precipitated, by dilution with “supersol” (20% v/v ethanol, 5% v/v 5 mM EDTA, 0.5% v/v Triton X-100, 0.1% m/v saponin in aqueous solution). After centrifugation, the supernatant was analyzed by radio-HPLC.

Structure (SMILES)	Ki [1] [nM]	IC50 [2] [nM]	faster association with fluorescent compared to radioactive detection [3]	faster dissociation with fluorescent compared to radioactive detection [3]	ratio hFAP-HT1080/muscle fluorescence ([4]; 120 min post injection)	ratio hFAP/WT-HT1080 tumor fluorescence ([4]; 120 min post injection)	fluorescence in hFAP-HT1080 tumor higher than in WT-HT1080 tumor or muscle ([4]; 24 h post injection) [%]	reduction of fluorescence signal in hFAP-HT1080 tumor ([4]; after 24 h post injection) [%]	WT-HT1080 to muscle ratio ([4]; over the imaging period)	time to plateau of fluorescence in hFAP-HT1080 tumor ([4]; post injection)	Kd [5] [nM]	degradation in human serum [6]	fraction of intact tracer [6] [%]
CN(CCCN1CCN(C(=O)[C@H](CCCCNC(=O)CC[C@H](C(=O)O)N2CCN(CC(=O)O)CCN(CC(=O)O)CC2)NC(=O)CCOCCOCCOCCOCCNC(=O)CCCCCN2/C(=C/C=C3\CCCC(/C=C/C4=[N+](CCCCS(=O)(=O)[O-])c5ccc(S(=O)(=O)O)cc5C4(C)C)=C3Oc3ccc(S(=O)(=O)O)cc3)C(C)(C)c3cc(S(=O)(=O)O)ccc32)CC1)c1ccc2nccc(C(=O)NCC(=O)N3CC(F)(F)C[C@H]3C#N)c2c1 [NODAGA-FAP800]	0.343 ± 0.153	> 10000	~ 50%	~ 30%	~ 1.9	~ 2.2	60	43	~ 1	~ 20 min			
CN(CCCN1CCN(C(=O)[C@H](CCCCNC(=O)CC[C@H](C(=O)[O-])N2CCN(CC(=O)[O-])CCN(CC(=O)[O-])CC2)NC(=O)CCOCCOCCOCCOCCNC(=O)CCCCCN2C(=CC=C3CCCC(C=CC4=[N+](CCCCS(=O)(=O)[O-])c5ccc(S(=O)(=O)O)cc5C4(C)C)=C3Oc3ccc(S(=O)(=O)O)cc3)C(C)(C)c3cc(S(=O)(=O)O)ccc32)CC1)c1ccc2nccc(C(=O)NCC(=O)N3CC(F)(F)C[C@H]3C#N)c2c1.[67Ga+3] [[^67Ga]Ga-NODAGA-FAP800]											0.018	no degradation	22
CN(CCCN1CCN(C(=O)[C@H](CCCCNC(=O)CC[C@H](C(=O)[O-])N2CCN(CC(=O)[O-])CCN(CC(=O)[O-])CC2)NC(=O)CCOCCOCCOCCOCCNC(=O)CCCCC[N+]2=C(C=CC=CC=C3N(CCCS(=O)(=O)O)c4ccc(S(=O)(=O)O)cc4C3(C)C)C(C)(CCCS(=O)(=O)O)c3cc(S(=O)(=O)[O-])ccc32)CC1)c1ccc2nccc(C(=O)NCC(=O)N3CC(F)(F)C[C@H]3C#N)c2c1.[67Ga+3] (stereo partly shown) [[^67Ga]Ga-NODAGA-FAP647]											0.025	no degradation	56
